These results are taken from patent US4616038A, “Combination of thienamycin-type antibiotics with dipeptidase inhibitors” (Merck & Co., Inc., priority 1985, dated 1986).

As a reminder, the Ki is a dissociation constant, usually derived from enzyme kinetics or from competition with a known ligand.

The target of data set [1] is T1, renal dipeptidase (E.C.3.4.13.11) (Sus scrofa, UniProt P22412).
T1 construct: solubilized preparation of dipeptidase isolated from hog kidneys; from tissue; host or cells: hog kidney
T1 sequence (P22412 17-409): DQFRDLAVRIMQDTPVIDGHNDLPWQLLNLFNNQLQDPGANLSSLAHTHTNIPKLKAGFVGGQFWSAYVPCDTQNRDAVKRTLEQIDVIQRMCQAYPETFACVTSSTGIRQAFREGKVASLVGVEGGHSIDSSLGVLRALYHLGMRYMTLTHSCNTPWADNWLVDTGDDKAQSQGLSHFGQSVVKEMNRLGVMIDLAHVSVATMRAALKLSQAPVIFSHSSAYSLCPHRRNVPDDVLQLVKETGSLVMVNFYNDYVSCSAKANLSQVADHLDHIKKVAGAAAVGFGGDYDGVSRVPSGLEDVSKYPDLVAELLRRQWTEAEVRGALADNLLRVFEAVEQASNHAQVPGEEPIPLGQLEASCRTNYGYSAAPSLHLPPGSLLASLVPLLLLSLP
Kind of data set: Inhibition of glycyldehydrophenylalanine (GDP) hydrolysis by renal dipeptidase in vitro. Type of data set: biochemical, pig (hog). As to conditions: concentration producing 50% inhibition; substrate GDP 0.05 mM; pH 7.1; 37° C.; read-out: Ki. The method, then: This measured the ability of compounds to inhibit hydrolysis of glycyldehydrophenylalanine (GDP) by a solubilized preparation of dipeptidase isolated from hog kidneys The procedure is as follows to a 1 ml. system containing 50 mM "MOPS" (3-(N-morpholino)propanesulfonic acid) buffer, pH 7.1, is added 5 μg of lyophilized enzyme, and the test compound at a final concentration of 0.1 mM. After a five minute incubation at 37° C., GDP is added to a final concentration of 0.05 mM. Incubation is continued for 10 minutes, at 37° C. and hydrolysis of GDP is measured by the change in optical density with time at 275 nm. Inhibition of the enzyme is gauged by comparison to a standard run containing no inhibitor and is expressed as the inhibitor binding constant, Ki.
A 1 ml. system of 50 mM "MOPS" buffer, pH 7.1, is used. To this is added 5 μg of the pig renal enzyme and an amount of the test compound to bring its final concentration to 0.1 mM. After a five minute incubation at 37° C., an amount of GDP is added to bring its final concentration to 0.05 mM. The system is again incubated for 10 minutes, at 37° C. Hydrolysis of GDP is measured by its change in optical density with time at 275 nm. Inhibition of the enzyme is gauged by comparison to a standard run containing no inhibitor and is presented as percent inhibition.

In a further data set the test system is Staphalococcus aureus. In words: Systemic efficacy of thienamycin on the treatment of Staphylococcus aureus infections in the mouse. Particulars: coadministered with thienamycin. In kind it is in vivo, Staphalococcus aureus (in mouse).
A further data set deals with T2, renal dipeptidase (Sus scrofa, UniProt P22412).
T2 construct: GPI-anchored disulfide-linked homodimer
T2 sequence (P22412 17-384): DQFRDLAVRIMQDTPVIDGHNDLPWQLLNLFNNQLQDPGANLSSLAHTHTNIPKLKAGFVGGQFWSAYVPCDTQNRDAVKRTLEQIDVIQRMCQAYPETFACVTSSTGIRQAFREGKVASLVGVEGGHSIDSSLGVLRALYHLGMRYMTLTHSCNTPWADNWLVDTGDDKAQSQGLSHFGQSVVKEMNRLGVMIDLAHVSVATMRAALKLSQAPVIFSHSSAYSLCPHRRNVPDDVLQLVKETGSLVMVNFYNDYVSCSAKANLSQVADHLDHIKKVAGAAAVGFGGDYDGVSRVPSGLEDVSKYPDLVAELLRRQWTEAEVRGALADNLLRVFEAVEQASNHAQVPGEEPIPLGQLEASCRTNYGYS
Kind of data set: Substrate affinity and maximal velocity of hydrolysis by renal dipeptidase. Type of data set: biochemical, hog. Particulars: GDP compared with thienamycin.

Data set [2] can be described thus: Urinary recovery of thienamycin in the mouse with co-administered inhibitor. As to conditions: urine. Type of data set: in vivo. The method, then: In addition to this in vitro screen procedure, an in vivo sreen was followed to measure the test compound's ability to inhibit metabolism as reflected by increase in urinary recovery of thienamycin from the mouse. The procedure involves co-administration of the test compound by the intravenous or subcutaneous route at a dose-rate of 10-100 mg/kg, with 10 mg/kg thienamycin. Thienamycin recovery in the urine over a 4 hour period is then compared with its recovery in a control group to which test compound was not coadministered.
Urinary recovery of thienamycin was measured in all cases with the use of a cylinder or disc diffusion assay, conducted in a manner described in U.S. Pat. No. 3,950,357. This bioassay, with Staphylococcus aureus ATCC 6538 as the test organism, has a useful response range from 0.04 μg/ml to 3.0 μg/ml.
An in vivo assay on the mouse was conducted as follows: 20 g Charles River CD, female mice were injected subcutaneously with the chosen dose of the chemical inhibitor. About two minutes later, the dose of thienamycin was given intravenously. A control of thienamycin above was also conducted. The level of thienamycin in the urine as a % of dose was measured using a bioassay technique. The two test compound numbers are those from Table I. Compound 7 is Z-2-isovaleramido-2-butenoicacid; compound 10 is Z-2-cyclopropylcarboxamido-2-butenoic acid. […]

Read-outs that look alike come from different tables or passages of the source.

Regarding `C/C=C(\NC(=O)CC(C)C)C(=O)O` [Compound 7, Z-2-isovaleramido-2-butenoic acid], the Ki in data set [1] worked out at 6 µM. In the data set on Staphalococcus aureus, the “enhancement of systemic antibacterial activity of thienamycin” value is “approximately three-fold”.

`NCC(=O)NC(=Cc1ccccc1)C(=O)O` [GDP, glycyldehydrophenylalanine]: on renal dipeptidase, the “maximal velocity of hydrolysis by renal dipeptidase” value is reported as “much higher maximal velocity of hydrolysis”.

`C[C@@H](O)[C@H]1C(=O)N2C(C(=O)O)=C(SCCN)C[C@H]12` [Thienamycin]: the dose excreted at 4 h in data set [2] (Table III, THM alone 10 mg/kg IV or SC, read-out: Urinary Recovery of THM, %) is 30 ± 5%; in data set [2] (Table IV, THM alone 10 mg/kg SC, read-out: Urinary Recovery THM, %) it was 30 ± 5%.
